# pKi: −log10 of the molar value. Where two headings read alike, the source gives them in different places.
# Columns and labels:
# [1] = tested on: MV4:11 human cancer cell lines; assay: Anti-proliferative activity, CellTiter-Glo viability assay, 7 day protocol; assay type: cell-based; conditions: Homo sapiens, MV4:11 cells, 7 day incubation, read-out: GI50 on cellular proliferation of MV4:11 human cancer cell lines
# Method in brief: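 MV4:11 cells seeded at 3600 cells/ml and exposed to compounds for 7 days, 0.1% DMSO final. Viability measured by CellTiter-Glo luminescence. GI50 from three biological replicates, each in technical triplicate, given as mean ± S.E.M.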
# WDR5 = WDR5 (Homo sapiens (Human), UniProt P61964); assay: TR-FRET binding assay (displacement of 10mer-Thr-FAM probe from WDR5); conditions: read-out: Ki for Inhibition of WDR5 by TR-FRET assay
# [2] = TR-FRET, 10mer-Thr-FAM probe, WDR5-His tag 2 nM, pH 7.0
SMILES,"GI50 ([1]; MV4-11, 168 h) [nM]",pKi (WDR5; [2]),pKi (WDR5),GI50 ([1]; 168 h) [nM]
"COc1cc([C@@H](NC(=O)c2cc(Cn3ccsc3=N)cc(-c3cn(C)nc3C(F)(F)F)c2)C2CC2)ccc1F [Example 327, (S)—N-(Cyclopropyl(4-fluoro-3-methoxyphenyl)methyl)-3-((2-iminothiazol-3(2H)-yl)methyl)-5-(1-methyl-3-(trifluoromethyl)-1H-pyrazol-4-yl)benzamide]",< 100,> 10.00,,
"CCn1cc(-c2cc(Cn3ccsc3=N)cc(C(=O)N[C@H](c3ccc(F)c(OC)c3)C3CC3)c2)c(C(F)(F)F)n1 [Example 328, (S)—N-(Cyclopropyl(4-fluoro-3-methoxyphenyl)methyl)-3-(1-ethyl-3-(trifluoromethyl)-1H-pyrazol-4-yl)-5-((2-iminothiazol-3(2H)-yl)methyl)benzamide]",< 100,> 10.00,,
"Cc1cc([C@@H](NC(=O)c2cc(CN3CCCC3=N)cc(-c3ccc(F)cc3C#N)c2)C2CC2)ccc1F [Example 333, (S)-2′-Cyano-N-(cyclopropyl(4-fluoro-3-methylphenyl)methyl)-4′-fluoro-5-((2-iminopyrrolidin-1-yl)methyl)-[1,1′-biphenyl]-3-carboxamide]",520,9.41,,
"Cc1cc([C@@H](NC(=O)c2cc(CN3CCCC3=N)cc(-c3cccnc3C(F)(F)F)c2)C2CC2)ccc1F [Example 334, (S)—N-(Cyclopropyl(4-fluoro-3-methylphenyl)methyl)-3-((2-iminopyrrolidin-1-yl)methyl)-5-(2-(trifluoromethyl)pyridin-3-yl)benzamide]",< 100,> 10.00,,
"Cc1cc([C@@H](NC(=O)c2cc(CN3CCCC3=N)cc(-c3ccc(F)cc3C(F)(F)F)c2)C2CC2)ccc1F [Example 335, (S)—N-(Cyclopropyl(4-fluoro-3-methylphenyl)methyl)-4′-fluoro-5-((2-iminopyrrolidin-1-yl)methyl)-2′-(trifluoromethyl)-[1,1′-biphenyl]-3-carboxamide]",< 100,> 10.00,,
"Cc1cc([C@@H](NC(=O)c2cc(CN3CCCC3=N)cc(-c3cn(C(C)C)nc3C(F)(F)F)c2)C2CC2)ccc1F [Example 336, (S)—N-(Cyclopropyl(4-fluoro-3-methylphenyl)methyl)-3-((2-iminopyrrolidin-1 yl)methyl)-5-(1-isopropyl-3-(trifluoromethyl)-1H-pyrazol-4-yl)benzamide]",< 100,> 10.00,,
"Cc1cc([C@@H](NC(=O)c2cc(CN3CCCC3=N)cc(-c3cn(C)nc3C(F)(F)F)c2)C2CC2)ccc1F [Example 337, (S)—N-(Cyclopropyl(4-fluoro-3-methylphenyl)methyl)-3-((2-iminopyrrolidin-1-yl)methyl)-5-(1-methyl-3-(trifluoromethyl)-1H-pyrazol-4-yl)benzamide]",< 100,> 10.00,,
"CCn1cc(-c2cc(CN3CCCC3=N)cc(C(=O)N[C@H](c3ccc(F)c(Cl)c3)C3CC3)c2)c(C(F)(F)F)n1 [Example 338, (S)—N-((3-Chloro-4-fluorophenyl)(cyclopropyl)methyl)-3-(1-ethyl-3-(trifluoromethyl)-1H-pyrazol-4-yl)-5-((2-iminopyrrolidin-1-yl)methyl)benzamide]",< 100,> 10.00,,
"COc1cc([C@@H](NC(=O)c2cc(CN3CCCC3=N)cc(-c3cn(C)nc3C(F)(F)F)c2)C2CC2)ccc1F [Example 339, (S)—N-(Cyclopropyl(4-fluoro-3-methoxyphenyl)methyl)-3-((2-iminopyrrolidin-1-yl)methyl)-5-(1-methyl-3-(trifluoromethyl)-1H-pyrazol-4-yl)benzamide]",100,,> 10.00,
"N=C1CCCN1Cc1cc(C(=O)N[C@H](c2ccc(F)c(Cl)c2)C2CC2)cc(-c2cccnc2C(F)(F)F)c1 [Example 340, (S)—N-((3-Chloro-4-fluorophenyl)(cyclopropyl)methyl)-3-((2-iminopyrrolidin-1-yl)methyl)-5-(2-(trifluoromethyl)pyridin-3-yl)benzamide]",< 100,> 10.00,,
"Cn1cc(-c2cc(CN3CCCC3=N)cc(C(=O)N[C@H](c3ccc(F)c(F)c3)C3CC3)c2)c(C(F)(F)F)n1 [Example 341, (S)—N-(Cyclopropyl(3,4-difluorophenyl)methyl)-3-((2-iminopyrrolidin-1-yl)methyl)-5-(1-methyl-3-(trifluoromethyl)-1H-pyrazol-4-yl)benzamide]",100,9.46,,
"Cc1cc([C@@H](NC(=O)c2cc(Cn3ccccc3=N)cc(-c3cccnc3C(F)(F)F)c2)C2CC2)ccc1F [Example 342, (S)—N-(Cyclopropyl(4-fluoro-3-methylphenyl)methyl)-3-((2-iminopyridin-1(2H)-yl)methyl)-5-(2-(trifluoromethyl)pyridin-3-yl)benzamide]",< 100,> 10.00,,
"Cc1cc([C@@H](NC(=O)c2cc(Cn3cccc(C)c3=N)cc(-c3cccnc3C(F)(F)F)c2)C2CC2)ccc1F [Example 343, (S)—N-(Cyclopropyl(4-fluoro-3-methylphenyl)methyl)-3-((2-imino-3-methylpyridin-1(2H)-yl)methyl)-5-(2-(trifluoromethyl)pyridin-3-yl)benzamide]",250,9.29,,
"Cc1ccn(Cc2cc(C(=O)N[C@H](c3ccc(F)c(C)c3)C3CC3)cc(-c3cccnc3C(F)(F)F)c2)c(=N)c1 [Example 344, (S)—N-(Cyclopropyl(4-fluoro-3-methylphenyl)methyl)-3-((2-imino-4-methylpyridin-1(2H)-yl)methyl)-5-(2-(trifluoromethyl)pyridin-3-yl)benzamide]",680,,9.32,
"CCOc1c(C(=O)N[C@H](c2ccc(F)c(C)c2)C2CC2)cc(Cn2ccccc2=N)cc1-c1cn(C)nc1C(F)(F)F [Example 347, (S)—N-(Cyclopropyl(4-fluoro-3-methylphenyl)methyl)-2-ethoxy-5-((2-iminopyridin-(2H)-yl)methyl)-3-(1-methyl-3-(trifluoromethyl)-1H-pyrazol-4-yl)benzamide]",< 100,> 10.00,,
"CCOc1c(C(=O)N[C@H](c2ccc(F)c(C)c2)C2CC2)cc(Cn2cc(F)ccc2=N)cc1-c1cn(C)nc1C(F)(F)F [Example 349, (S)—N-(Cyclopropyl(4-fluoro-3-methylphenyl)methyl)-2-ethoxy-5-((5-fluoro-2-iminopyridin-1(2H)-yl)methyl)-3-(1-methyl-3-(trifluoromethyl)-1H-pyrazol-4-yl)benzamide]",,,> 10.00,< 100
"Cc1cc([C@@H](NC(=O)c2cc(Cn3cccc(F)c3=N)cc(-c3cccnc3C(F)(F)F)c2)C2CC2)ccc1F [Example 350, (S)—N-(Cyclopropyl(4-fluoro-3-methylphenyl)methyl)-3-((3-fluoro-2-iminopyridin-1(2H)-yl)methyl)-5-(2-(trifluoromethyl)pyridin-3-yl)benzamide]",140,9.92,,
"Cc1cc([C@@H](NC(=O)c2cc(Cn3cccc(F)c3=N)cc(-c3cn(C)nc3C(F)(F)F)c2)C2CC2)ccc1F [Example 351, (S)—N-(Cyclopropyl(4-fluoro-3-methylphenyl)methyl)-3-((3-fluoro-2-iminopyridin-1(2H)-yl)methyl)-5-(1-methyl-3-(trifluoromethyl)-1H-pyrazol-4-yl)benzamide]",< 100,> 10.00,,
"Cc1cc([C@@H](NC(=O)c2cc(Cn3ccccc3=N)cc(-c3cn(C)nc3C(F)(F)F)c2)C2CC2)ccc1F [Example 352, (S)—N-(cyclopropyl(4-fluoro-3-methylphenyl)methyl)-3-((2-iminopyridin-1(2H)-yl)methyl)-5-(1-methyl-3-(trifluoromethyl)-1H-pyrazol-4-yl)benzamide]",< 100,> 10.00,,
"COc1cc(OC)cc(C(C)NC(=O)c2cc(Cn3ccn(C)c3=N)cc(-c3ccc(F)cc3C)n2)c1 (stereo not drawn) [Example 355, N-(1-(3,5-Dimethoxyphenyl)ethyl)-6-(4-fluoro-2-methylphenyl)-4-((2-imino-3-methyl-2,3-dihydro-1H-imidazol-1-yl)methyl)picolinamide]",1190,8.45,,
"Cc1cc([C@@H](NC(=O)c2cc(CN3CCOC3=N)cc(-c3cn(C)nc3C(F)(F)F)n2)C2CC2)ccc1F [Example 361, (S)—N-(Cyclopropyl(4-fluoro-3-methylphenyl)methyl)-4-((2-iminooxazolidin-3-yl)methyl)-6-(1-methyl-3-(trifluoromethyl)-1H-pyrazol-4-yl)picolinamide]",940,9.11,,
"Cc1ccnc(C(NC(=O)c2cc(Cn3ccn(C)c3=N)cc(-c3ncccc3C(F)(F)F)c2)C2CC2)c1 (stereo not drawn) [Example 364, N-(Cyclopropyl(4-methylpyridin-2-yl)methyl)-3-((2-imino-3-methyl-2,3-dihydro-1H-imidazol-1-yl)methyl)-5-(3-(trifluoromethyl)pyridin-2-yl)benzamide]",7800,8.37,,
"COc1cc(CNC(=O)c2cc(Cn3ccn(C)c3=N)nc(-c3ccc(F)cc3C)c2)cc(OC)c1 [Example 365, N-(3,5-Dimethoxybenzyl)-2-(4-fluoro-2-methylphenyl)-6-((2-imino-3-methyl-2,3-dihydro-1H-imidazol-1-yl)methyl)isonicotinamide]",6000,9.26,,
"COc1ccnc(CNC(=O)c2ccc(F)c(Cn3ccn(C)c3=N)c2)c1 [Example 366, 4-Fluoro-3-((2-imino-3-methyl-2,3-dihydro-1H-imidazol-1-yl)methyl)-N-((4-methoxypyridin-2-yl)methyl)benzamide]",30000,7.89,,

# From US10844044B2 (Vanderbilt University, priority 2018, dated 2020)
